Assay [1] in a line: microbe, parasite or virus in culture. As to conditions: Mycobacterium tuberculosis, 96 h, read-out: pIC50 (converted).
Assay [2] can be described thus: microbe, parasite or virus in culture. To be noted: Mycobacterium tuberculosis, 72 h, read-out: pIC50 (converted).

Structures are written as SMILES. Where only a bound is given, the exact number is not on record here.

As for `CCCNC(=O)c1nnn(-c2ccccc2OC)c1C`, the values for the IC50 in assay [1] and in assay [2] were 6.03 µM and 191 µM, respectively.

In the case of `O=C1CCCN1CCCNS(=O)(=O)c1ccc(Br)s1`, the IC50 in assay [1] is 6.97 µM; in assay [2], more than 501 µM.

With `N#Cc1ccc(NCCC2CCN(CC(F)(F)F)CC2)nc1`, the IC50 is 14 µM in assay [1] and 15.8 µM in assay [2].

Turning to `CC(C1CC1)N(C)Cc1nnc(-c2ccc(Br)s2)o1` (stereo not given), the results for the IC50 in assay [1] and in assay [2] were 42.1 µM and 2.95 µM, respectively.

With `N[C@@H]1C[C@H]1c1ccc2c(c1)OCCO2`, the IC50 in assay [1] was 196 µM; in assay [2], more than 501 µM.

For the compound `CN(C)S(=O)(=O)c1cc2c(cc1Cl)OCCO2`, the IC50 was more than 501 µM in assay [1] and 209 µM in assay [2].

Consider `CCN1CCN(C(=O)C2CCCOC2)c2ccccc21` (stereo not given), for which the IC50 in assay [1] is 276 µM; in assay [2] it was 158 µM.

Turning to `CN(CCS(=O)(=O)c1cc(Cl)ccc1Cl)CC(N)=O`, the IC50 is more than 50.1 µM in assay [1] and 24.7 µM in assay [2].

On to `Cn1cc(NC(=O)c2ccc(Br)s2)cc1C(N)=O`, for which the IC50 is 285 µM in assay [1] and 341 µM in assay [2].

Turning to `CCN(CC)C(=O)CN1CCC2(C=Cc3cc(Cl)c(C)cc3O2)CC1`, the IC50 in assay [1] is more than 50.1 µM; in assay [2] it was 31.4 µM.

For `CS(=O)(=O)N1CCC(Cc2ccccc2)C1` (stereo not given), the values for the IC50 in assay [1] and in assay [2] were 467 µM and 482 µM, respectively.

In the case of `Cc1ccc(C(=O)N2CCN(c3nccs3)CC2)o1`, the IC50 in assay [1] is 183 µM; in assay [2], 157 µM.

Turning to `c1ccc2c(N3CCNCC3)cncc2c1`, the IC50 was 290 µM in assay [1] and 460 µM in assay [2].

As to `CC1=NOC(C(=O)NCCc2nc3c(s2)CCCC3)C1` (stereo not given), the results for the IC50 in assay [1] and in assay [2] were 286 µM and 169 µM, respectively.

With `C=C(C)c1nc(C#N)c(NCc2ccco2)o1`, the IC50 is 170 µM in assay [1] and 142 µM in assay [2].

As for `COc1ccc(C(=O)NC2COc3ccccc3C2)cc1OCC(=O)O` (stereo not given), the IC50 in assay [1] was 26 µM; in assay [2], more than 50.1 µM.

For the compound `Cc1c(Br)cccc1S(=O)(=O)NCCN`, the IC50 in assay [1] is more than 501 µM; in assay [2], 212 µM.

For `Cc1ccc(CN2CCC3(CC(=O)N(c4cccc(F)c4)C3)C2)o1` (stereo not given), the IC50 in assay [1] was more than 50.1 µM; in assay [2] it was 20.3 µM.

`CN(Cc1ccco1)C(=O)c1cccc(C#N)c1`: the IC50 in assay [1] and in assay [2] was more than 501 µM throughout.

As for `CCCn1nnc(NC(=O)COc2ccc(Cl)cc2)n1`, the IC50 in assay [1] is 272 µM; in assay [2], 237 µM.

With `COCCN(C)S(=O)(=O)c1cc(F)c(C)cc1F`, the figures for the IC50 in assay [1] and in assay [2] were more than 501 µM and 465 µM, respectively.

As to `Clc1ccc(-c2noc(CN3CCCNCC3)n2)cc1`, the IC50 in assay [1] was 216 µM; in assay [2], 213 µM.

In the case of `CSCc1cccc(CNC(=O)c2cc[nH]n2)c1`, the results for the IC50 in assay [1] and in assay [2] were more than 501 µM and 308 µM, respectively.

With `Cc1ccc(C(C)(C)CN(C)C(=O)CCN)cc1`, the results for the IC50 in assay [1] and in assay [2] were more than 501 µM and 64.1 µM, respectively.

Regarding `O=C1NCC2(CCCN(C(=O)c3c[nH]nc3-c3cccs3)C2)O1` (stereo not given), the IC50 in assay [1] and in assay [2] was more than 50.1 µM in each case.

With `NC(=O)COc1cccc(CN2CCC(F)CC2)c1`, the IC50 in assay [1] and in assay [2] was more than 501 µM throughout.

As for `Cc1ccc(-c2noc(CN3CC(n4cc(C)cn4)C3)n2)cc1`, the IC50 in assay [1] was 22.6 µM; in assay [2], 49.1 µM.

Turning to `Cc1cc(NCCCC(F)(F)F)n2nc(C)cc2n1`, the IC50 was 10.2 µM in assay [1] and 15.6 µM in assay [2].

Consider `CCN1CC2(CC1=O)CN(Cc1cnn(C)c1)CCN(C(=O)C(C)C)C2` (stereo not given), for which the IC50 in assay [1] and in assay [2] was more than 50.1 µM throughout.

`CN(CCn1cccn1)c1cc(Br)ccn1`: the IC50 in assay [1] was 366 µM; in assay [2] it was 190 µM.

As for `NCc1n[nH]c(-c2ccc(Br)cc2)n1`, the figures for the IC50 in assay [1] and in assay [2] were more than 50.1 µM and 24.3 µM, respectively.

As for `COc1ccnc(N2CCCN(c3nc(C4CC4)ns3)CC2)n1`, the IC50 in assay [1] and in assay [2] was more than 50.1 µM each time.

Regarding `Clc1cnc(NCCNCc2cc[nH]n2)c(Cl)c1`, the values for the IC50 in assay [1] and in assay [2] were more than 501 µM and 227 µM, respectively.

Take `O=C(CC1COc2ccccc2O1)N1CCOCC1` (stereo not given): the values for the IC50 in assay [1] and in assay [2] were 64 µM and 74.9 µM, respectively.

Regarding `CNCC(=O)NC1CCN(Cc2ccc(Br)cc2)CC1`, the IC50 in assay [1] was 294 µM; in assay [2], 257 µM.

Regarding `COc1c(Cl)cc(NC(=O)C2COCCN2)cc1Cl` (stereo not given), the IC50 in assay [1] is more than 501 µM; in assay [2], 200 µM.

With `COC(=O)[C@H](C)NC(=O)c1noc2c1CCCCC2`, the IC50 in assay [1] is more than 501 µM; in assay [2] it was 238 µM.

Consider `CC(C)CC(O)C(=O)NCc1cc2ccccc2[nH]1` (stereo not given), for which the IC50 in assay [1] and in assay [2] was more than 501 µM throughout.

As to `COC(=O)CSCC(=O)Nc1cc(F)cc(F)c1`, the values for the IC50 in assay [1] and in assay [2] were more than 501 µM and 204 µM, respectively.

For the compound `COC(=O)CNC(=O)c1nc(Br)sc1C(C)C`, the IC50 in assay [1] and in assay [2] was more than 50.1 µM each time.

Take `CCNc1ncc(C(=O)N2CCOC(CCCC(C)C)C2)cn1` (stereo not given): the IC50 in assay [1] was 43 µM; in assay [2] it was more than 50.1 µM.

`CCC(C)(C)NC(=O)c1ccn(-c2ccccc2F)n1`: the IC50 in assay [1] was 350 µM; in assay [2], 361 µM.

`O=C(NCCOc1ncccc1Cl)c1cc(Cl)c[nH]1`: the IC50 in assay [1] was 287 µM; in assay [2], 188 µM.

As for `COc1ccccc1OCCn1c(C)c(C)oc1=O`, the IC50 in assay [1] and in assay [2] was more than 50.1 µM throughout.

In the case of `CCNc1cc2c(nn1)CCN(C(=O)C1COc3ccccc3C1)C2` (stereo not given), the results for the IC50 in assay [1] and in assay [2] were 45 µM and 44.6 µM, respectively.

Regarding `COc1ccc(CNC(C)c2ccc(Cl)c(Cl)c2)c(OC)c1OC` (stereo not given), the IC50 in assay [1] is more than 50.1 µM; in assay [2], 45.1 µM.

Turning to `FC(F)(F)c1ccc(-c2cnc(C3CCCN3)cn2)cc1` (stereo not given), the figures for the IC50 in assay [1] and in assay [2] were 2.02 µM and 13.9 µM, respectively.

Turning to `COC[C@@H]1CN(C)C(=O)[C@@H]2CCN(Cc3ccco3)CC[C@H]12`, the IC50 in assay [1] and in assay [2] was more than 50.1 µM in each case.

For `COc1cc(OC)cc(C2(F)CCNCC2)c1`, the IC50 in assay [1] is 287 µM; in assay [2], 226 µM.

As to `NC(=O)C(N)c1ccc2c(c1)OCCO2` (stereo not given), the IC50 in assay [1] and in assay [2] was more than 501 µM throughout.

On to `N#Cc1ccc(OCC(=O)Nc2ccccn2)cc1`, for which the IC50 is more than 501 µM in assay [1] and 247 µM in assay [2].

Regarding `COCCC(CO)NC(=O)c1cnn(C(C)C)c1C` (stereo not given), the IC50 in assay [1] is 124 µM; in assay [2], 110 µM.

For the compound `COc1ccc(CC(=O)Nc2c(C)nc(N3CCCC3)nc2C)cc1`, the IC50 in assay [1] and in assay [2] was more than 50.1 µM each time.

Consider `CN(C)c1cc(C(=O)Nc2ccccc2C(=O)NC(C)(C)C)ccn1`, for which the IC50 in assay [1] and in assay [2] was more than 50.1 µM each time.

Take `CCN1C(=O)[C@H]2CN(CC(C)C)C[C@H]2C12CCN(S(C)(=O)=O)CC2`: the IC50 in assay [1] and in assay [2] was more than 50.1 µM throughout.

In the case of `CCc1cccc2c1N(C(=O)[C@@H](N)CC)CC2`, the IC50 in assay [1] is more than 501 µM; in assay [2] it was 244 µM.

With `COc1cccc2c1OCC(C(=O)N1CCN(C3CCCC3)C(=O)C1)C2` (stereo not given), the IC50 in assay [1] and in assay [2] was more than 50.1 µM in each case.

With `O=C(NCCCn1ncc2ccccc21)C1CC1`, the IC50 in assay [1] was 147 µM; in assay [2] it was 150 µM.

In the case of `OCCNC1CCCC1`, the IC50 in assay [1] and in assay [2] was more than 501 µM throughout.

As for `CN(Cc1ccc(Cl)s1)C(=O)Cn1nc(-c2ccc(F)cc2)oc1=O`, the IC50 in assay [1] and in assay [2] was more than 50.1 µM in each case.

Regarding `O=C(c1ccc(Cn2cnnn2)cc1)N1CCC(c2ccncc2)CC1`, the IC50 in assay [1] and in assay [2] was more than 50.1 µM in each case.

On to `CN(Cc1ccc(Oc2ccccc2)cc1)C(=O)CN`, for which the IC50 in assay [1] was 157 µM; in assay [2] it was 130 µM.

Take `CCNc1ncc(C(=O)N2CCC(c3ccccc3C(=O)O)C2)cn1` (stereo not given): the IC50 in assay [1] and in assay [2] was more than 50.1 µM throughout.

With `CCNCC(O)COc1ccc(C)cc1OC` (stereo not given), the IC50 is 10.5 µM in assay [1] and 218 µM in assay [2].

With `CNC(=O)Nc1ccc(OC)c(OCCOC)c1`, the IC50 in assay [1] was 219 µM; in assay [2], 138 µM.

Regarding `COc1cccc(N2CCC(CN)C2)c1` (stereo not given), the IC50 in assay [1] was 290 µM; in assay [2], 69.7 µM.

In the case of `COCC(C)(CCO)NCC(=O)Nc1ccccc1I` (stereo not given), the values for the IC50 in assay [1] and in assay [2] were more than 501 µM and 238 µM, respectively.

In the case of `CC(NC(=O)CSc1nc(=O)[nH]n1C)c1cccs1` (stereo not given), the results for the IC50 in assay [1] and in assay [2] were 234 µM and 175 µM, respectively.

As for `COC(=O)CCNS(=O)(=O)c1ccc(OC)cc1`, the IC50 in assay [1] and in assay [2] was more than 501 µM each time.

With `NCC1Cc2ccccc21` (stereo not given), the values for the IC50 in assay [1] and in assay [2] were 278 µM and 114 µM, respectively.

As to `CCN1CC(c2nc3ccccc3[nH]2)CC1=O` (stereo not given), the IC50 in assay [1] is 260 µM; in assay [2] it was 250 µM.

With `CSCC(CCO)Nc1ncccc1C(F)(F)F` (stereo not given), the IC50 in assay [1] is more than 501 µM; in assay [2], 253 µM.

As for `CC(NS(=O)(=O)N(C)C1CCCCC1)c1ccccn1` (stereo not given), the IC50 is 159 µM in assay [1] and 75.6 µM in assay [2].

In the case of `COc1cccc(NC(CN)c2ccccc2)c1` (stereo not given), the IC50 in assay [1] is more than 501 µM; in assay [2], 187 µM.

Regarding `Cc1oc(C)c(C(=O)NCC(=O)N2CCCC2)c1C`, the IC50 in assay [1] and in assay [2] was more than 501 µM in each case.

With `CCc1cc2c(N3CCCC(c4ccn[nH]4)C3)ncnc2s1` (stereo not given), the IC50 was 12.6 µM in assay [1] and 9.09 µM in assay [2].

Regarding `Cc1ncsc1CCC(=O)N1CCCC1c1cccnc1` (stereo not given), the IC50 in assay [1] and in assay [2] was more than 50.1 µM each time.

As for `CCCc1nc(N2CC[C@@H](c3ccc4c(c3)OCO4)[C@H](O)C2)no1`, the IC50 is more than 50.1 µM in assay [1] and 44.3 µM in assay [2].

Consider `CC(C)N(Cc1ccccn1)C(=O)c1cc(Cl)c[nH]1`, for which the IC50 in assay [1] and in assay [2] was more than 501 µM each time.

Regarding `O=C(c1cc(COc2ccc3c(c2)OCO3)[nH]n1)N1CCCCO1`, the IC50 in assay [1] was 17.8 µM; in assay [2] it was more than 50.1 µM.

For the origin of these results see ChEMBL document CHEMBL3988442, “University of Dundee, Small-Polar-MMV Screening Library” (2021).
